The source of these data is patent publication US11339124B2, “3-(benzylamino)-4-(cyclohexylamino)-n-(2-(piperazin-1-yl)ethyl)benzenesulfonamide derivatives and related ferrostatin-1 analogues as cell death inhibitors for treating e.g. stroke” (VIB VZW, priority 2018, dated 2022).

For orientation: CLint scaled means the capacity of the preparation to metabolise the compound, expressed as a volume cleared per time. A high value points to faster metabolism. A word on the half-life: it is the time in which the quantity being followed falls by half. The term IC50 denotes the concentration at which inhibition is half-maximal.

The nature of series [1]: Pharmacokinetics and tissue distribution after single-dose iv injection in mice. It counts as in vivo. To be noted: iv ~10 mg/kg; for Tissue distribution profile, levels in organs: 24 h after injection; for Crossing of the blood-brain barrier: brain tissue (FIG. 4), 10 mg/kg. The protocol: FIG. 4: Tissue distribution of ferrostatin-analogues. Equimolar amounts of Ferrostatin (Fer-1), compound 39 (depicted as UAMC-3203) and compound 38 (depicted as UAMC-3206) (˜10 mg/kg) were injected intravenously 2 h (left panel) or 24 h (right panel) before tissue collection (heart, liver, lung, muscle, kidney and brain). Tissues were collected, snap frozen in liquid nitrogen, homogenized and stored at −80° C. until analysis. The tissue samples for LC-MS were further processed by protein precipitation by diluting 20 μL of the homogenate with 80 μL ACN containing IS (tolbutamide). After centrifugation, the supernatant was further diluted in the appropriate solvent.
The detected levels of UAMC-3203 vary between 3-60 ng/mg tissue depending on the organ, which is up to […] or 6-fold higher than the dose injected.

Experiment in series [2]: as above
The format is in vivo. To be noted: single-dose iv injection (~10 mg/kg).

Series [3] is described as follows: Kinetic solubility (turbidimetric method). It counts as physicochemical. To be noted: 10 mM PBS pH 7.4, 2% DMSO, test range 3.125-200 μM, 2 h at 37° C. On the procedure:
A turbidimetric method was used. First a series of DMSO compound stock solutions was prepared ([…]). An aliquot of 4 μL stock solution was added to 196 μL PBS buffer (pH 7.4). A series of concentrations were prepared (3.13-200 μM), including a blank on a microtiter plate. (2% DMSO-D6) The microtiter plate was shaken for 10 seconds and incubated for 2 hours at 37° C. When there was no turbidity measured at a given concentration the sample was assumed to be dissolved.

A short description of series [4]: Microsomal (metabolic) stability, mouse liver microsomes. Particulars: pH 7.4. From the text:
By using the measured microsomal in vitro t1/2, a calculated value for the intrinsic clearance Clint can be determined. This value states the measure in which a drug that is not bound to plasma proteins is irreversibly removed from the body by the liver. This value is expressed in mL/min/kg which can be interpreted as the volume of blood in mL that is cleared of a drug per minute per kilogram of body weight. The CLint is less sensitive to used variables in ADME assays since the amount of microsomal protein and the volume of the incubation are all taken into account. (Sohlenius-Sternbeck et al., Xenobiotica, 2012, 42, 841-853)
Liver microsomes (20 mg protein/ml), NADPH regenerating system solutions A & B and 5 mM stock compound solution (100% DMSO) are prepared. The reaction mixture finally contains 713 μL purified water, 200 μL 0.5 M potassium phosphate pH 7.4, 50 μL NADPH regenerating system solution A (BD Biosciences Cat. No. 451220), 10 μL NADPH regenerating system solution B (BD Biosciences Cat. No. 451200) and 2 μL of the compound stock solution (10 μM final concentration). The reaction mixture is warmed to 37° C. for 5 minutes in a water bath and the reaction is initiated by addition of 25 μL of liver microsomes (0.5 mg protein/ml final concentration). At different time points (0 min-15 min-30 min-60 min-120 min-240 min-360 min-24 h), 20 μL is withdrawn and 80 μL cold acetonitrile is added on ice for 10 minutes. Then the mixtures are centrifuged at 13 000 rpm for 5 min at 4° C. The supernatant is further diluted in 90% water/MeCN (1/25) to fall within the range of the LC/MS/MS analysis. At each time point, the compound is analysed using LC/MS/MS with the same UPLC system as described above. A standard curve of six points was made to fit the measured concentrations. Verapamil was used as a positive control.
All obtained readouts were processed using Microsoft Excel. In order to determine the microsomal half-life t1/2 of the compounds, the rate constant k was determined by plotting the exponential decay graphs using GraFit. Microsomal t1/2 was determined using the following formula: […]
(Liver microsomes are a subcellular fraction often used to study metabolism.)

Series [5] relates to IMR-32 Neuroblastoma cells. Description: Erastin-induced ferroptosis in IMR-32 neuroblastoma cells (Sytox Green cell death readout). It counts as cell-based. To be noted: Homo sapiens; IMR-32 cells, 10 μM erastin, compounds 1 nM to 1 μM, triplicate; read-out: IC50, antiferroptotic activity in response to erastin-induced ferroptosis. On the procedure:
In the present invention the potency of a compound inhibiting (or reducing) ferroptosis and/or oxytosis are determined in in vitro or in vivo assays. Typically in vitro assays are used to measure the potency of a candidate compound. Examples of suitable in vitro assays are cellular assays. One non-limiting example of an assay involves the use of the IMR-32 neuroblastoma cell line. The latter is stimulated to enter into ferroptosis upon stimulation with 10 μM erastin, a documented ferroptosis inducer (see for example Dixon et al (2012) Cell 149, 1060-1072 and ferroptosis inhibitors are evaluated for the prevention of erastin induced ferroptosis. Yet another assay is based the glutamate-induced cell death in the hippocampal cell line HT22 and ferroptosis/oxytosis inhibitors are evaluated for the prevention of cell death (see Henke N. et al (2013) Cell Death and Disease 4, e470). Still another assay is based on the sorafinib induced cell death (described to be iron dependent cell death) in hepatocellular carcinoma cells and ferroptosis inhibitors are evaluated for the prevention of cell death (see Louandre C. et al (2013) Int. J. Cancer 133, 1732). The calculated potency of a compound inhibiting ferroptosis and/or oxytosis is typically depicted as an IC50 value. Examples of suitable in vivo assays are typically pre-clinical disease models of for example mice for the diseases benefiting the application of ferroptosis and/or oxytosis inhibitors, as described herein. One non-limiting example of an in vivo assay is based on inducing liver damage in mice by administering the herbicide diquat dibromide monohydrate and ferroptosis inhibitors are evaluated based on reduced levels of liver transaminases in serum (see Ran Q et al (2004) J. Biol. Chem. 279, 53, 55137).
The IC50 values for the individual compounds of the invention were determined in the neuroblastoma, IMR-32 cell line. In brief, IMR-32 cells were subjected to 10 μM erastin, the latter compound is known to induce ferroptosis. A concentration gradient (ranging from 1 nM to 1 μM) of the compounds was applied to the cells. These experiments were performed in a 96-well format (in triplicate), and cell death was analyzed in a fluorescent plate reader by use of a fluorescent cell death dye (1.5 μM Sytox Green). The IC50 values depicted in Table 1 are the concentration values for the individual compounds which are able to overcome ferroptosis.

On to `Cl.O=S(=O)(NCCN1CCNCC1)c1ccc(NC2CCCCC2)c(NCc2ccccc2)c1` [Compound 39, 3-(benzylamino)-4-(cyclohexylamino)-N-(2-(piperazin-1-yl)ethyl)benzenesulfonamide Hydrochloride], for which, in series [1] (2 h after injection), the “Tissue distribution profile compared to -3206 and benchmark Fer-1” value is reported as “superior profile”. For the same compound, in series [1], the “Tissue distribution profile, levels in organs” value is given as “still present in range of 2- to 100-fold less than the dose injected”. The “Crossing of the blood-brain barrier” value in series [1] (Hydrochloride) was “efficiently crosses the blood brain barrier”; in series [1] (listed as UAMC-3203, Hydrochloride), “seems to cross the blood-brain barrier”. Further, the concentration at 2 h in series [1] (mouse, tissues (heart, liver, lung, muscle, kidney, brain), 2 h after injection, read-out: Detected levels in tissue depending on the organ) fell in the range of 3000 to 60000 ng/g. In addition, the Levels in blood entry in series [2] is “almost undetectable levels in blood”. Also, in series [3], the “Solubility (kinetic)” value was greater than 200 µM. The compound also registered a CLint scaled at 10 µM in series [4] (liver microsomes) of 18 ± 7.1 mL/min/kg. This compound also had a half-life at 10 µM in series [4] (microsomes) of 3.46 h. The IC50 in series [5] is 10 nM.
With `CNCCNS(=O)(=O)c1ccc(NC2CCCCC2)c(NCc2ccccc2)c1.Cl` [Compound 37, 3-(benzylamino)-4-(cyclohexylamino)-N-(2-(methylamino)ethyl)benzenesulfonamide Hydrochloride], the “Tissue distribution profile, levels in organs” value in series [1] was “not detected in any organ”. In addition, in series [2], the Levels in blood entry is “almost undetectable levels in blood”. Besides, in series [3], the “Solubility (kinetic)” value is greater than 200 µM. In addition, in series [4] (liver microsomes), the CLint scaled at 10 µM came out at 139 ± 6.2 mL/min/kg and the half-life at 10 µM is 0.45 ± 0.02 h. The 50% inhibitory concentration (IC50) in series [5] stood at 3 nM.
As for `Cl.NCCNS(=O)(=O)c1ccc(NC2CCCCC2)c(NCc2ccccc2)c1` [Compound 38, N-(2-aminoethyl)-3-(benzylamino)-4-(cyclohexylamino)benzenesulfonamide Hydrochloride], the “Tissue distribution profile, levels in organs” value in series [1] is on record as “detected in very low levels”. Moreover, the Levels in blood result in series [2] is reported as “almost undetectable levels in blood”. Further, the “Solubility (kinetic)” value in series [3] was greater than 200 µM. The compound also showed a CLint scaled at 10 µM in series [4] (liver microsomes) of 4.8 ± 1.5 mL/min/kg. The same compound showed a half-life at 10 µM in series [4] (microsomes) of 13 h. Besides, the IC50 in series [5] was 12 nM.
